Assay results published in paper PMC9851200, “Multiparameter phenotypic screening for endogenous TFEB and TFE3 translocation identifies novel chemical series modulating lysosome function” (Autophagy, 2022).
Where two headings read alike, the source gives them in different places.

Tests used:
SH-SY5Y cells [1] = experiment: Nuclear count from microscopy images (cellular growth and toxicity); further: reference of the scale not given here
endogenous TFE3 = experiment: TFE3 nuclear translocation, immunocytochemistry high-content imaging; format: cell-based
endogenous TFEB = experiment: TFEB nuclear translocation, immunocytochemistry high-content imaging; format: cell-based
SH-SY5Y cells [2] = tested on: SH-SY5Y cells; further: reference of the scale not given here
SH-SY5Y cells [3] = experiment: AK (adenylate kinase) release ToxiLight cytotoxicity assay; further: reference of the scale not given here
[4] = PKIS2 primary screen, DQ Red BSA intensity
[5] = PKIS2 primary screen, DQ Red BSA spot count
[6] = PKIS2 primary screening, DQ Red BSA intensity
[7] = PKIS2 primary screening, DQ Red BSA spot count

O=C(Nc1c(F)cccc1F)c1cc(C(=O)c2ccccc2F)c[nH]1 [UNC10225351A]
Nuclear Count (SH-SY5Y cells [1]; PKIS2 primary screen): 134.69 | TFE3 % (endogenous TFE3; PKIS2 primary screen): 7.96% | TFEB % (endogenous TFEB; PKIS2 primary screen): 3.75% | DQ Intensity (SH-SY5Y cells [2]; [4]): 115.15 | DQ Spot (SH-SY5Y cells [2]; [5]): 113.72 | AK (SH-SY5Y cells [3]; PKIS2 primary screen): 106.59

COc1ccc(Nc2nccc(N3CCC(NC(=O)C(C)c4ccc(Cl)cc4)CC3)n2)cc1 (stereo not drawn) [GSK1379812]
Nuclear Count (SH-SY5Y cells [1]; PKIS2 primary screening): 97.15 | TFE3 % (endogenous TFE3; PKIS2 primary screening): 16.53% | TFEB % (endogenous TFEB; PKIS2 primary screening): 5.92% | DQ Intensity (SH-SY5Y cells [2]; [6]): 134.37 | DQ Spot (SH-SY5Y cells [2]; [7]): 89.99 | AK (SH-SY5Y cells [3]; PKIS2 primary screening): 91.65

COC(=O)C(Cc1ccccc1)NC(=O)NC1CCN(c2ccnc(Nc3ccc(F)cc3)n2)C1 (stereo not drawn) [GSK1379714]
Nuclear Count (SH-SY5Y cells [1]; PKIS2 primary screening): 110.40 | TFE3 % (endogenous TFE3; PKIS2 primary screening): 7.75% | TFEB % (endogenous TFEB; PKIS2 primary screening): 4.19% | DQ Intensity (SH-SY5Y cells [2]; [6]): 97.62 | DQ Spot (SH-SY5Y cells [2]; [7]): 115.84 | AK (SH-SY5Y cells [3]; PKIS2 primary screening): 95.90

CCn1cnc2c(NCc3ccccc3)ncnc21 [UNC10225370A]
Nuclear Count (SH-SY5Y cells [1]; PKIS2 primary screening): 102.90 | TFE3 % (endogenous TFE3; PKIS2 primary screening): 13.91% | TFEB % (endogenous TFEB; PKIS2 primary screening): 4.85% | DQ Intensity (SH-SY5Y cells [2]; PKIS2 primary screening): 98.37 | DQ Spot (SH-SY5Y cells [2]; PKIS2 primary screening): 103.57 | AK (SH-SY5Y cells [3]; PKIS2 primary screening): 79.45

C[C@@H](Oc1cc(-n2cnc3cc(-c4ccnc(NCCS(C)(=O)=O)c4)ccc32)sc1C(N)=O)c1ccccc1Cl [UNC10225234A]
Nuclear Count (SH-SY5Y cells [1]; PKIS2 primary screening): 68.66 | TFE3 % (endogenous TFE3; PKIS2 primary screening): 12.54% | TFEB % (endogenous TFEB; PKIS2 primary screening): 11.46% | DQ Intensity (SH-SY5Y cells [2]; PKIS2 primary screening): 121.28 | DQ Spot (SH-SY5Y cells [2]; PKIS2 primary screening): 93.41 | AK (SH-SY5Y cells [3]; PKIS2 primary screening): 97.61

Cc1c(Cn2ccn3c(=O)cc(N4CCOCC4)nc23)cccc1C(F)(F)F [UNC10243861A]
Nuclear Count (SH-SY5Y cells [1]; PKIS2 primary screening): 146.89 | TFE3 % (endogenous TFE3; PKIS2 primary screening): 6.09% | TFEB % (endogenous TFEB; PKIS2 primary screening): 1.67% | DQ Intensity (SH-SY5Y cells [2]; PKIS2 primary screening): 74.52 | DQ Spot (SH-SY5Y cells [2]; PKIS2 primary screening): 79.14 | AK (SH-SY5Y cells [3]; PKIS2 primary screening): 106.43

CCn1c(-c2c(N)noc2C)nc2cnccc21 [UNC10225095A]
Nuclear Count (SH-SY5Y cells [1]; PKIS2 primary screening): 110.85 | TFE3 % (endogenous TFE3; PKIS2 primary screening): 10.37% | TFEB % (endogenous TFEB; PKIS2 primary screening): 3.05% | DQ Intensity (SH-SY5Y cells [2]; PKIS2 primary screening): 103.20 | DQ Spot (SH-SY5Y cells [2]; PKIS2 primary screening): 105.92 | AK (SH-SY5Y cells [3]; PKIS2 primary screening): 112.40

CC(C)c1nc(-c2cccc(NS(=O)(=O)c3c(F)cccc3F)c2F)c(-c2ccnc(Nc3ccc(N4CCOCC4)nc3)n2)s1 [UNC10224991A]
Nuclear Count (SH-SY5Y cells [1]; PKIS2 primary screening): 54.49 | TFE3 % (endogenous TFE3; PKIS2 primary screening): 13.92% | TFEB % (endogenous TFEB; PKIS2 primary screening): 5.34% | DQ Intensity (SH-SY5Y cells [2]; PKIS2 primary screening): 137.04 | DQ Spot (SH-SY5Y cells [2]; PKIS2 primary screening): 135.69 | AK (SH-SY5Y cells [3]; PKIS2 primary screening): 96.03

CC1=C(C(=O)Nc2cc3cn[nH]c3cc2F)C(c2ccc(C(F)(F)F)cc2)CC(=O)N1 (stereo not drawn) [UNC10225339A]
Nuclear Count (SH-SY5Y cells [1]; PKIS2 primary screening): 108.36 | TFE3 % (endogenous TFE3; PKIS2 primary screening): 22.61% | TFEB % (endogenous TFEB; PKIS2 primary screening): 3.31% | DQ Intensity (SH-SY5Y cells [2]; PKIS2 primary screening): 158.90 | DQ Spot (SH-SY5Y cells [2]; PKIS2 primary screening): 127.41 | AK (SH-SY5Y cells [3]; PKIS2 primary screening): 70.62

CNC(=O)c1ccccc1Nc1nc(Nc2cccc(CS(C)(=O)=O)c2)ncc1C [GSK1520489]
Nuclear Count (SH-SY5Y cells [1]; PKIS2 primary screening): 38.33 | TFE3 % (endogenous TFE3; PKIS2 primary screening): 10.71% | TFEB % (endogenous TFEB; PKIS2 primary screening): 10.40% | DQ Intensity (SH-SY5Y cells [2]; [6]): 192.20 | DQ Spot (SH-SY5Y cells [2]; [7]): 118.45 | AK (SH-SY5Y cells [3]; PKIS2 primary screening): 149.13

Cc1ccc(C)c(NC(=O)NCCNc2ccnc(Nc3ccc(F)cc3)n2)c1 [GSK1379878]
Nuclear Count (SH-SY5Y cells [1]; PKIS2 primary screening): 85.48 | TFE3 % (endogenous TFE3; PKIS2 primary screening): 7.01% | TFEB % (endogenous TFEB; PKIS2 primary screening): 8.11% | DQ Intensity (SH-SY5Y cells [2]; [6]): 136.83 | DQ Spot (SH-SY5Y cells [2]; [7]): 104.85 | AK (SH-SY5Y cells [3]; PKIS2 primary screening): 103.06

CCn1c(-c2ccccn2)nc2cnccc21 [UNC10225156A]
Nuclear Count (SH-SY5Y cells [1]; PKIS2 primary screening): 94.90 | TFE3 % (endogenous TFE3; PKIS2 primary screening): 11.71% | TFEB % (endogenous TFEB; PKIS2 primary screening): 4.22% | DQ Intensity (SH-SY5Y cells [2]; PKIS2 primary screening): 124.07 | DQ Spot (SH-SY5Y cells [2]; PKIS2 primary screening): 112.23 | AK (SH-SY5Y cells [3]; PKIS2 primary screening): 96.85

Fc1ccc(Nc2nccc(-c3c(-c4ccc(Cl)cc4)nn4ncccc34)n2)cc1F [UNC10225073A]
Nuclear Count (SH-SY5Y cells [1]; PKIS2 primary screening): 119.55 | TFE3 % (endogenous TFE3; PKIS2 primary screening): 12.07% | TFEB % (endogenous TFEB; PKIS2 primary screening): 10.16% | DQ Intensity (SH-SY5Y cells [2]; PKIS2 primary screening): 129.98 | DQ Spot (SH-SY5Y cells [2]; PKIS2 primary screening): 108.87 | AK (SH-SY5Y cells [3]; PKIS2 primary screening): 84.83

CN1C(=O)C(Nc2ccc(Cl)c(C(=O)O)c2)=C(c2ccc(Cl)cc2)C1=O [UNC10225406A]
Nuclear Count (SH-SY5Y cells [1]; PKIS2 primary screening): 91.26 | TFE3 % (endogenous TFE3; PKIS2 primary screening): 10.12% | TFEB % (endogenous TFEB; PKIS2 primary screening): 3.59% | DQ Intensity (SH-SY5Y cells [2]; [6]): 120.55 | DQ Spot (SH-SY5Y cells [2]; [7]): 105.90 | AK (SH-SY5Y cells [3]; PKIS2 primary screening): 75.31

Cl.Cl.NCC(NC(=O)c1cc(-c2ccccc2)c(-c2ccnc3[nH]ccc23)s1)c1ccccc1 (stereo not drawn) [UNC10225466A]
Nuclear Count (SH-SY5Y cells [1]; PKIS2 primary screening): 129.43 | TFE3 % (endogenous TFE3; PKIS2 primary screening): 18.77% | TFEB % (endogenous TFEB; PKIS2 primary screening): 5.04% | DQ Intensity (SH-SY5Y cells [2]; [6]): 104.29 | DQ Spot (SH-SY5Y cells [2]; [7]): 96.16 | AK (SH-SY5Y cells [3]; PKIS2 primary screening): 133.16

CCN(CC)CCOc1ccc(Nc2ncc3cc(-c4c(Cl)cccc4Cl)c(=O)n(C)c3n2)cc1 [UNC10225459A]
Nuclear Count (SH-SY5Y cells [1]; PKIS2 primary screen): 26.96 | TFE3 % (endogenous TFE3; PKIS2 primary screen): 18.27% | TFEB % (endogenous TFEB; PKIS2 primary screen): 22.54% | DQ Intensity (SH-SY5Y cells [2]; [4]): 115.72 | DQ Spot (SH-SY5Y cells [2]; [5]): 64.83 | AK (SH-SY5Y cells [3]; PKIS2 primary screen): 131.29

Fc1ccc(-c2ncn(CCCN3CCOCC3)c2-c2cccnc2)cc1 [UNC10225320A]
Nuclear Count (SH-SY5Y cells [1]; PKIS2 primary screening): 104.41 | TFE3 % (endogenous TFE3; PKIS2 primary screening): 16.30% | TFEB % (endogenous TFEB; PKIS2 primary screening): 7.10% | DQ Intensity (SH-SY5Y cells [2]; [6]): 94.06 | DQ Spot (SH-SY5Y cells [2]; [7]): 100.66 | AK (SH-SY5Y cells [3]; PKIS2 primary screening): 125.08
